Assay results reported in publication PMC10254852, “Design, Synthesis and Anticancer Evaluation of Nitroimidazole Radiosensitisers” (Molecules, 2023).

Columns and labels:
UT-SCC-74B tumours = test: Tumour radiosensitisation: ex vivo clonogenic assay; format: in vivo, NIH-III mice
HCT116/54C tumours = test: as above; format: in vivo, NIH-III mice
[1] = Tolerability at maximum achievable dose, i.v.; format: in vivo; details: i.v. injection, NIH-III mice
Text: The most promising 2-nitroimidazole 34 and 5-nitroimidazole 38 compounds were selected for in vivo evaluation on the basis of solubility, in vitro cytotoxicity and radiosensitisation data. These compounds were both well tolerated by i.v. injection in NIH-III mice at their maximum achievable dose (MAD) of 2.2 mmol/kg. This MAD was also achieved for some of our earlier compounds, but only when we employed a phosphate prodrug strategy owing to their poor solubility. […] The Cmax and AUC exceeded that achieved for earlier phosphate prodrugs 9–12, but was less than 2. On this basis we advanced both morpholine analogues into in vivo radiosensitisation studies.
(§1) Specific pathogen-free six- to eight-week-old female NIH-III mice, bred in the Vernon Jansen Unit, University of Auckland, were used for animal experiments. Animals had ad libitum access to food and water and were maintained in microisolator cages on a 12 h light/dark cycle. All treatments were administered by i.v. injection at a dose of 2.2 mmol/kg and injection volume of 10 mL/kg. Compounds 2, 34 and 38 were administered as solutions in saline containing 1% DMSO or for 9–12 as solutions in saline containing 2 molar equivalents of NaHCO3. Control animals received an i.v. injection of saline at 10 mL/kg. All animal experiments were conducted under the auspices of the University of Auckland Animal Ethics Committee (approval 1781).

[2] = Plasma pharmacokinetics after single i.v. dose; format: in vivo; details: female, mouse, iv, NIH-III mice, 2.2 mmol/kg i.v.
Protocol: as §1
Female NIH-III mice were injected with a single i.v. dose of 34 at its MAD of 2.2 mmol/kg in saline. Blood was collected by cardiac puncture under terminal CO2 anaesthesia at 5, 10, 30, 60 and 120 min after dosing. Blood was immediately centrifuged (3000× g, 3 min), and plasma was stored at −80 °C for HPLC. Tumour samples were prepared and analysed by HPLC using standard protocols established in our laboratory.

[3] = 2.2 mmol/kg i.v. 5 min prior to 10 Gy radiation, surviving fraction after radiation/surviving fraction after drug + radiation
[4] = 2.2 mmol/kg i.v. + 10 Gy, one-way ANOVA
[5] = drug alone 2.2 mmol/kg i.v., relative to untreated tumours
[6] = 2.2 mmol/kg i.v., 10 Gy, mechanism experiment (Figure 3)

Q: What does the source list for `O=[N+]([O-])c1nccn1CS(=O)(=O)NCCN1CCOCC1` [Compound 34]?
A: Sensitisation Ratio (UT-SCC-74B tumours; [3]): 13.8; enhancement of tumour cell killing by radiotherapy (RAD vs drug + RAD) (UT-SCC-74B tumours; [4]): significantly enhanced tumour cell killing by radiotherapy; single agent cell kill (UT-SCC-74B tumours; [5]): 68.4 ± 1.2%; Sensitisation Ratio (HCT116/54C tumours; [3]): 14.9; enhancement of tumour killing of radiotherapy (RAD vs drug + RAD) (HCT116/54C tumours; [4]): significantly enhanced the tumour killing of radiotherapy; SR, drug given 5 min before radiation (HCT116/54C tumours; [6]): 9.76; SR, drug given 20 min after radiation (HCT116/54C tumours; [6]): 1.49; single agent cell kill (HCT116/54C tumours; [5]): 62.3 ± 7.9%; maximum achievable dose (MAD), well tolerated [1]: 2.2 mmol/kg; AUC [2]: 960 µM·h; Cmax [2]: 1530 µM; half-life [2]: 1.52 h
